Earlier results, collected in patent US6376242B1, “Methods and compositions for treating platelet-related disorders using MPL pathway inhibitory agents” (Emory University, priority 1999, dated 2002).

Tested on: megakaryocyte cell line
Details: in vitro

N#C/C(=C/c1ccc(O)c(O)c1)C(=O)NCc1ccccc1 [AG-490]
inhibition of proliferation of a megakaryocyte cell line: inhibit proliferation of a megakaryocyte cell line in vitro
